Where no end group is shown, it is not given here.
Columns and labels:
[1] = Chitin micro-column binding; settings: washed at pH 7, desorbed with 100 mM acetic acid (pH 2.8), SDS-PAGE
[2] = system: B cinerea; test: Effect of ions on antifungal activity (synthetic growth medium); type: cell-based, Botrytis cinerea; settings: for increase of the IC50 values with CaCl2 at 1 mM: reference medium + 1 mM CaCl2; for effect of KCl at 10 mM on the dose-response curves: reference medium + 10 mM KCl; for increase of the IC50 values with KCl at 50 mM: reference medium + 50 mM KCl
[3] = system: Phytophthora infestans; type: cell-based
[4] = system: Alternaria brassicola MUCL 20297; type: cell-based
[5] = system: Ascochyta pisi MUCL 30164; type: cell-based
[6] = system: Botrytis cinerea MUCL 30158; type: cell-based
[7] = system: Venturia inaegualis MUCL 15927; type: cell-based
[8] = system: Verticillium dahliae MUCL 19210; type: cell-based
[9] = system: Colletotrichum lindemuthianum MUCL 9577; type: cell-based
[10] = system: Cercospora beticola strain K897; type: cell-based
[11] = system: Fusarium oxysporum f.sp. lycopersici MUCL 909; type: cell-based
[12] = system: Pyrenophora tritici-repentis MUCL 30217; type: cell-based
[13] = system: Fusarium oxysporum f.sp. pisi IMI 236441; type: cell-based
[14] = system: Saccharomyces cerevisiae JRY188; settings: S cerevisiae
Protocol: Routinely, tests were performed with 20 μl of a (filter-sterilized) test solution and 80 μl of a fungal spore suspension (2×10^4 spores/ml) or mycelium fragments in either half strength potato dextrose broth (medium A) or half strength potato dextrose broth with CaCl2 and KCl added to final concentrations of 1 mM and 50 mM respectively (medium B). For experiments on the antagonistic effect of cations, a synthetic growth medium was used instead of Potato Dextrose Broth. […] Control microcultures contained 20 μl of sterile distilled water and 80 μl of the fungal spore suspension.
Unless otherwise stated the test organism was Fusarium culmorum (strain IMI 180420) and incubation was carried out at 25° C. for 48 hours. Percent growth inhibition is defined as 100 times the ratio of the corrected absorbance of the control microculture minus the corrected absorbance of the test microculture over the corrected absorbance at 595 nm of the control microculture. The corrected absorbance values equal the absorbance at 595 nm of the culture measured after 48 hours minus the absorbance at 595 nm measured after 30 min. […] The antifungal activity (units per ml) is calculated as 50 times the dilution factor of a test solution at which 50% growth inhibition is obtained under the given assay conditions.
Antibacterial activity was measured microspectrophotometrically as follows. […]

[15] = system: Fusarium culmorum IMI 180420; type: cell-based
[16] = system: Penicillium digitatum (K0879); type: cell-based
[17] = system: plant pathogenic fungi; type: cell-based
[18] = system: Rhizoctonia solani CBS 207-84; type: cell-based
[19] = system: Verticillium albo-atrum (K0937); type: cell-based
[20] = system: Trichoderma viride (K1127); type: cell-based
[21] = system: Pyricularia oryzae MUCL 30166; type: cell-based
[22] = system: Nectria haematococca Collection Van Etten 160-2-2; type: cell-based
[23] = system: Fusarium culmorum; type: physicochemical
Protocol: Tests for antifungal activity were performed with 20 μl samples diluted five-fold with growth medium containing Fusarium culmorum spores, according to the assay method given in Example 1. untreated control samples consisted of the test proteins at 500 μg/ml in 10 mM sodium phosphat buffer (pH 7). For digestions, different proteases were added at 100 μg/ml and incubated at 37° C. for 16 hours. Heat stability tests were performed by heating aliquots of the test proteins for 10 minutes at different temperatures up to 100° C. pH stability was tested by incubation of test proteins for 1 hour in either 20 mM glycine-HCl (pH 2) or glycine-NaOH (pH 11) and subsequent dialysis for 16 hours against 10 mM sodium phosphate buffer (pH 7) using benzoylated cellulose tubing. Reduction of dishulphide bridges was done by addition of DTE at 30 mM and Tris-HCl (pH 8.6) at 300 mM. The reagents were removed by reversed-phase chromatography. For digestions, different proteases were added at 200 μg/ml and incubated at 37° C. for 3 hours.

[24] = system: Phoma betae MUCL 9916; type: cell-based

Substance: Ac-AMP1: Antimicrobial protein from Amaranthus caudatus seeds, 29 residues, dimer of two identical 3 kDa subunits (SEQ ID NO: 5) (VGECVRGRCPSGMCCSQFGYCGKGPKYCG; cysteine pairing not given here; also: dimer of two identical subunits)
- affinity toward chitin [1]: exhibit affinity toward chitin
- increase of the IC50 values with CaCl2 at 1 mM [2]: five to six-fold
- effect of KCl at 10 mM on the dose-response curves [2]: did not significantly affect the dose-response curves
- increase of the IC50 values with KCl at 50 mM [2]: about three-fold
- IC50 [3]: 12 µg/mL

Substance: Ac-AMP2: Antimicrobial protein from Amaranthus caudatus seeds, 30 residues, Ac-AMP1 plus a carboxyl-terminal arginine (SEQ ID NO: 6) (VGECVRGRCPSGMCCSQFGYCGKGPKYCGR; not fully specified; cysteine pairing not given here)
- IC50 [4]: 4 µg/mL
- affinity toward chitin [1]: exhibit affinity toward chitin
- IC50 [5]: 8 µg/mL
- IC50 [6]: 8 µg/mL
- IC50 [7]: 3 µg/mL
- increase of the IC50 values with CaCl2 at 1 mM [2]: five to six-fold
- effect of KCl at 10 mM on the dose-response curves [2]: did not significantly affect the dose-response curves
- increase of the IC50 values with KCl at 50 mM [2]: about three-fold
- IC50 [8]: 5 µg/mL
- IC50 [9]: 8 µg/mL
- IC50 [10]: 0.8 µg/mL

Substance: Ca-AMP1: Antimicrobial protein purified from seeds of Capsicum annuum (SEQ ID NO: 15) (QEQCGNQAGGRACANRLCCSQYGYCGSTRAYCGVGCQSNCGR)
- IC50 (μg/ml) Medium A [11]: 300 µg/mL
- IC50 (μg/ml) Medium B [11]: >500 µg/mL
- IC50 (μg/ml) Medium A [12]: 70 µg/mL
- IC50 (μg/ml) Medium B [12]: >500 µg/mL
- IC50 (μg/ml) Medium A [13]: >500 µg/mL
- IC50 (μg/ml) Medium B [13]: >500 µg/mL
- IC50 (μg/ml) Medium B [4]: >500 µg/mL
- affinity toward chitin [1]: exhibits affinity to chitin
- IC50 [14]: 30 µg/mL
- IC50 (μg/ml) Medium B [5]: >500 µg/mL
- IC50 (μg/ml) Medium A [15]: 4 µg/mL
- IC50 (μg/ml) Medium B [15]: >500 µg/mL
- morphological changes in partially inhibited fungal spores [15]: severe branching of the emerging hyphal tips
- IC50 (μg/ml) Medium B [16]: >500 µg/mL
- IC50 (μg/ml) Medium B [6]: >500 µg/mL
- number of pathogenic fungi with IC50 value below 10 μg/ml [17]: 10 of the fungi
- IC50 (μg/ml) Medium A [18]: 8 µg/mL
- IC50 (μg/ml) Medium B [18]: >500 µg/mL
- IC50 (μg/ml) Medium B [19]: >500 µg/mL
- IC50 (μg/ml) Medium A [20]: 200 µg/mL
- IC50 (μg/ml) Medium B [20]: >500 µg/mL
- IC50 (μg/ml) Medium A [21]: 5 µg/mL
- IC50 (μg/ml) Medium B [21]: >500 µg/mL
- IC50 (μg/ml) Medium A [8]: 6 µg/mL
- IC50 (μg/ml) Medium B [8]: >500 µg/mL
- IC50 (μg/ml) Medium A [22]: 4 µg/mL
- IC50 (μg/ml) Medium B [22]: >500 µg/mL
- antifungal activity after chymotrypsin treatment ([23]; chymotrypsin digestion, 37° C.): no affect on activity
- antifungal activity after heat treatment ([23]; heating for 10 minutes at different temperatures up to 100° C.): resistant to heat treatment at up to 80 °C for 10 minutes
- reduction of antifungal activity after pronase E treatment ([23]; pronase E digestion, 37° C.): at least 10 fold
- reduction of antifungal activity after proteinase K treatment ([23]; proteinase K digestion, 37° C.): at least 10 fold
- antifungal activity after reduction of disulphide bonds ([23]; reduction by DTE / dithiothreitol): completely abolished the antifungal activity
- reduction of antifungal activity after trypsin treatment ([23]; trypsin digestion, 37° C.): 2 fold
- IC50 (μg/ml) Medium A [9]: 50 µg/mL
- IC50 (μg/ml) Medium B [9]: >500 µg/mL
- IC50 (μg/ml) Medium B [10]: 200 µg/mL
- IC50 (μg/ml) Medium A [24]: 300 µg/mL
- IC50 (μg/ml) Medium B [24]: >500 µg/mL

— patent US6521590B1, “Biocidal proteins” (priority 1991, dated 2003)
